Molecular target: T1, CSF1R (Mus musculus, UniProt P09581)
T1 construct: endogenous in cells
T1 sequence (P09581 20-977): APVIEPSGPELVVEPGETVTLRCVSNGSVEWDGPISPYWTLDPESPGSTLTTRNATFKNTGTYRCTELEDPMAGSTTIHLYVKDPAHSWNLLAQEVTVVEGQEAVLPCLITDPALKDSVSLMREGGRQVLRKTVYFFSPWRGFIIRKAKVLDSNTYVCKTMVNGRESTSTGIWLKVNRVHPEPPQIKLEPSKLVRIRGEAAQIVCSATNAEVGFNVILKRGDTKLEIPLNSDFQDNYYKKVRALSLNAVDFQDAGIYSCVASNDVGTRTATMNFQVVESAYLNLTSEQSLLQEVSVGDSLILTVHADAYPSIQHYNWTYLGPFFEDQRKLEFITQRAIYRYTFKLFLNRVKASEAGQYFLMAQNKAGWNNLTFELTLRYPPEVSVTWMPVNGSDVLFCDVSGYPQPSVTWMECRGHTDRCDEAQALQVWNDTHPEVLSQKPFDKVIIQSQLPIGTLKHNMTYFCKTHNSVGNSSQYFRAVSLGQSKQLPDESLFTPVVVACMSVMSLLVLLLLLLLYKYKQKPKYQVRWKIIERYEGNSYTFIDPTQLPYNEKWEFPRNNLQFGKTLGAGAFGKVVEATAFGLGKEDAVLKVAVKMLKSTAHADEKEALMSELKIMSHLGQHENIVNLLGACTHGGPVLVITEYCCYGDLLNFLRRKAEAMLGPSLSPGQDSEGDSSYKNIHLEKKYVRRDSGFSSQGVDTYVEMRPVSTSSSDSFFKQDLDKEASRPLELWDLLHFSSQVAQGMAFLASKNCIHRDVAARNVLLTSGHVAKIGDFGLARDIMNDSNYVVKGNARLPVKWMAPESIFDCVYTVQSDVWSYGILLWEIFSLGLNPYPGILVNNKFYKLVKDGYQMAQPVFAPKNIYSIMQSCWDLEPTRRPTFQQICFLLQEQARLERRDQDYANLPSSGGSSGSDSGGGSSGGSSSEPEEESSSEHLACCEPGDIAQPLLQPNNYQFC
Experiment: CSF1R phosphorylation in RAW264.7 cells after CSF-1 stimulation (Western blot)
Format: cell-based
Conditions: 67 nM, different time points, then CSF1 10 ng/ml for 20 min
Protocol: FIG. 2. (a) Expression of phospho-CSF1R in RAW264.7 cells at different time points post-treatment with mCSF. (b-c) Treatment with either BLZ-945 (a current gold standard small molecule inhibitor of CSF1R) or AK750 (the formulated form of BLN101) across different time points followed by CSF-1 (10 ng/mL) stimulation for 20 minutes. After stimulation the cells were washed with cold PBS and the cell lysates were collected.
Activity Studies of Compound of Formula I • Efficacy of BLN101 vs BLZ945 on the ability to inhibit CSF1R in vitro is studied. RAW264.7 cells are treated with BLZ945 (67 nM) or BLN101 (67 nM) for different time points, at the end of which the cells were exposed to CSF1 (10 ng/ml) for 20 min. The cells were then lysed and analyzed for phosphorylated CSF1R levels. […] Efficacy of BLN101 (in formulation AK750) vs BLZ945 on increase in iNOS expression in vitro is studied. It is observed that exposure to Tumor Conditioned Media over 24 h decreases INOS levels. Measurement of the expression of iNOS in RAW264.7 cells at different time points after treatment with B-16-tumour conditioned media followed by BLZ-945 or BLN101 (as AK750 formulation) treatment across different time points. […] At different time-points, the cells are harvested and analyzed the population for M1 (MHCII+, CD86+, CD80+) or M2 (CD206+) markers using fluorescence activated cell sorting (FIG. 5d). […]

Compound: CNC(=O)c1cc(Oc2ccc3nc(NC4CCCC[C@H]4OC(=O)CCC(=O)O[C@H]4CC[C@@]5(C)C(=CC[C@H]6[C@@H]7CC[C@H](C(C)CCCC(C)C)[C@@]7(C)CC[C@@H]65)C4)sc3c2)ccn1 (stereo in doubt) [BLN101]
- inhibition of CSF1R (phosphorylated CSF1R levels): sustained and statistically significantly greater inhibition of CSF1R as compared with BLZ945
- inhibition of CSF1R (phosphorylated CSF1R levels) (listed as BLZ101): potent inhibitor of CSF1R

— US10736968B2, “Cellular signalling inhibitors, their formulations and methods thereof” (INVICTUS ONCOLOGY PVT. LTD., priority 2016, dated 2020)
